The values below come from patent US20240132431A1, “METHOD FOR ALKYLATING ACIDIC FUNCTIONAL GROUP” (Chugai Seiyaku Kabushiki Kaisha, priority 2021, published 2024).

In this assay the target is T1, Bcl-2 protein (Recombinant Human Bcl-2 Protein) (Homo sapiens, UniProt P10415).
T1 construct: purchased Novus NBP2-34889
Description: Binding evaluation of mixture library compounds to Bcl-2 using AS-MS (affinity selection mass spectrometry). The conditions noted are these: for ASMS ratio (%) n = 1 / ASMS ratio (%) n = 2: ASMS Ratio(%)=(A−C)/B×100; for ASMS ratio (%) n = 1: replicate n = 1; for ASMS ratio (%) n = 2: replicate n = 2. The procedure, abridged:
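Affinity selection MS: Bcl-2 20 μM + 1200-cpd mixture, […]/cpd, Tris pH 7.4 buffer w/ Tween-20, DTT; 1 h 23° C dark; P-2 spin SEC; MeCN/MeOH extraction; RP LC/MS. ASMS Ratio(%) = (A−C)/B×100.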

[1] abbreviates: AS-MS, mixture of 1200 compounds, Bcl-2.
The mark [2] stands for this setting: AS-MS on the mixture of 1200 library compounds.

T1 sequence (P10415 whole entry): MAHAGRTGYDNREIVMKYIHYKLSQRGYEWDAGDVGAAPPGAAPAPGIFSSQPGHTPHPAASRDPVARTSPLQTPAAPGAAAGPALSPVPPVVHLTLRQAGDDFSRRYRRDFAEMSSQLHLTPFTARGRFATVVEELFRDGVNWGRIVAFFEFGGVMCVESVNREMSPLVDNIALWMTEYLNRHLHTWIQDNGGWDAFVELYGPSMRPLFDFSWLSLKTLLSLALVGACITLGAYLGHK

Regarding `CCOc1cncc(-c2cc(CN3CCN(c4ccc(C(=O)NS(C)(=O)=O)nn4)CC3)cc(OCC)c2)c1` [B2I082-01, 6-[4-[[3-Ethoxy-5-(5-ethoxypyridin-3-yl)phenyl]methyl]piperazin-1-yl]-N-methylsulfonylpyridazine-3-carboxamide], the “ASMS ratio (%)” value by setting is: (n = 1) 0.0%; (n = 2) 1.9%.

For the compound `CCOc1cccc(-c2cc(CN3CCN(c4ccc(C(=O)NCC56CC7CC(CC(C7)C5)C6)cc4)CC3)cc(OCC)c2)c1` [B1A055-01, N-(1-Adamantylmethyl)-4-[4-[[3-ethoxy-5-(3-ethoxyphenyl)phenyl]methyl]piperazin-1-yl]benzamide], under setting [1], the “ASMS ratio (%) n = 1” value is recorded as −0.1% and the “ASMS ratio (%) n = 2” value is given as −14.4%.

As for `CCOc1cccc(-c2csc(CN3CCN(c4ccc(C(=O)Nc5ccc(OC)cc5)nn4)CC3)c2)c1` [B1O093-01, 6-[4-[[4-(3-Ethoxyphenyl)thiophen-2-yl]methyl]piperazin-1-yl]-N-(4-methoxyphenyl)pyridazine-3-carboxamide], under setting [2], the “ASMS ratio (%) n = 1” value was 0.0% and the “ASMS ratio (%) n = 2” value is on record as 0.6%.

For the compound `CCOc1cccc(-c2ccc(CN3CCN(c4ccc(C(=O)NS(=O)(=O)c5ccc(NCCSc6ccccc6)c([N+](=O)[O-])c5)nn4)CC3)c(CC)c2)c1` [B2Q075-01, 6-[4-[[4-(3-Ethoxyphenyl)-2-ethylphenyl]methyl]piperazin-1-yl]-N-[3-nitro-4-(2-phenylsulfanylethylamino)phenyl]sulfonylpyridazine-3-carboxamide], for the setting “AS-MS, mixture library, Bcl-2”, the “ASMS ratio (%) n = 1” value is reported as 0.0% and the “ASMS ratio (%) n = 2” value is 0.0%.

As to “4-[4-[[4-(5-Ethoxypyridin-3-yl)thiophen-2-yl]methyl]piperazin-1-yl]-N-propylbenzamide [B1M050-01]”, under setting [1], the “ASMS ratio (%) n = 1” value is listed as −2.0% and the “ASMS ratio (%) n = 2” value is −0.2%.

Take `CCOc1cncc(-c2ccc(CN3CCN(c4ccc(C(=O)NS(=O)(=O)CCC(F)(F)F)cc4)CC3)c3ccccc23)c1` [B2N066-01, 4-[4-[[4-(5-Ethoxypyridin-3-yl)naphthalen-1-yl]methyl]piperazin-1-yl]-N-(3,3,3-trifluoropropylsulfonyl)benzamide]: the “ASMS ratio (%)” value (n = 1) came out at 0.0% and the “ASMS ratio (%)” value (n = 2) was found to be 0.0%.

On to `CCOc1cncc(-c2cc(OC)c(CN3CCN(c4ccc(C(=O)NS(=O)(=O)c5ccc(NCCSc6ccccc6)c(C(F)(F)F)c5)cc4)CC3)c(OC)c2)c1` [B2R060-01, 4-[4-[[4-(5-Ethoxypyridin-3-yl)-2,6-dimethoxyphenyl]methyl]piperazin-1-yl]-N-[4-(2-phenylsulfanylethylamino)-3-(trifluoromethyl)phenyl]sulfonylbenzamide], for which the “ASMS ratio (%)” value runs as follows: (n = 1) 3.9%; (n = 2) 0.0%.

Consider `CCOc1cncc(-c2ccc(CN3CCN(c4ccc(C(=O)NCC56CC7CC(CC(C7)C5)C6)cc4)CC3)c(OC)c2)c1` [B1A054-01, N-(1-Adamantylmethyl)-4-[4-[[4-(5-ethoxypyridin-3-yl)-2-methoxyphenyl]methyl]piperazin-1-yl]benzamide], for which, under setting [1], the “ASMS ratio (%) n = 1” value came out at 0.0% and the “ASMS ratio (%) n = 2” value turned out to be 0.0%.

Take `CCOc1cccc(-c2ccc(CN3CCN(c4ccc(C(=O)NCC(F)(F)F)nn4)CC3)cc2C)c1` [B1K073-01, 6-[4-[[4-(3-Ethoxyphenyl)-3-methylphenyl]methyl]piperazin-1-yl]-N-(2,2,2-trifluoroethyl)pyridazine-3-carboxamide]: under setting [1], the “ASMS ratio (%) n = 1” value turned out to be 3.1% and the “ASMS ratio (%) n = 2” value is on record as −1.9%.

Consider `CCOc1cncc(C#Cc2cc(C(=O)N3CCN(c4ccc(C(=O)NS(=O)(=O)c5ccc(NCCSc6ccccc6)c([N+](=O)[O-])c5)nn4)CC3)cc(C(F)(F)F)c2)c1` [B2Q020-01, 6-[4-[3-[2-(5-Ethoxypyridin-3-yl)ethynyl]-5-(trifluoromethyl)benzoyl]piperazin-1-yl]-N-[3-nitro-4-(2-phenylsulfanylethylamino)phenyl]sulfonylpyridazine-3-carboxamide], for which, where the note is “AS-MS, mixture library, Bcl-2”, the “ASMS ratio (%) n = 1” value amounted to 6.1% and the “ASMS ratio (%) n = 2” value came to 5.6%.

In the case of `CCOc1cncc(-c2ccc(C(=O)N3CCN(c4ccc(C(=O)NS(=O)(=O)CCC(F)(F)F)nn4)CC3)cc2C)c1` [B2N004-01, 6-[4-[4-(5-Ethoxypyridin-3-yl)-3-methylbenzoyl]piperazin-1-yl]-N-(3,3,3-trifluoropropylsulfonyl)pyridazine-3-carboxamide], the “ASMS ratio (%)” value by setting is: (n = 1) 1.2%; (n = 2) −2.0%.

For `CCOc1cncc(-c2ccc(C(C)N3CCN(c4ccc(C(=O)NS(=O)(=O)c5ccc(NCCSc6ccccc6)c(C(F)(F)F)c5)cc4)CC3)cc2)c1` (stereo not shown) [B2R098-01, 4-[4-[1-[4-(5-Ethoxypyridin-3-yl)phenyl]ethyl]piperazin-1-yl]-N-[4-(2-phenylsulfanylethylamino)-3-(trifluoromethyl)phenyl]sulfonylbenzamide], the “ASMS ratio (%)” value is 9.2% (n = 1) and 7.5% (n = 2).

`CCOc1cccc(-c2csc(C(=O)N3CCN(c4ccc(C(=O)N(CC)CC)cc4)CC3)c2)c1` [B4J023-01, 4-[4-[4-(3-Ethoxyphenyl)thiophene-2-carbonyl]piperazin-1-yl]-N,N-diethylbenzamide]: under setting [2], the “ASMS ratio (%) n = 1” value amounted to 3.5% and the “ASMS ratio (%) n = 2” value is −3.4%.

As to `CCOc1cccc(-c2ccc(CN3CCN(c4ccc(C(=O)NS(=O)(=O)c5ccc(NCCSc6ccccc6)c(C(F)(F)F)c5)nn4)CC3)cc2F)c1` [B2R077-01, 6-[4-[[4-(3-Ethoxyphenyl)-3-fluorophenyl]methyl]piperazin-1-yl]-N-[4-(2-phenylsulfanylethylamino)-3-(trifluoromethyl)phenyl]sulfonylpyridazine-3-carboxamide], the “ASMS ratio (%)” value runs as follows: (n = 1) 0.0%; (n = 2) 0.0%.

“6-[4-[4-(5-Ethoxypyridin-3-yl)thiophene-2-carbonyl]piperazin-1-yl]-N-propylpyridazine-3-carboxamide [B1M082-01]”: under setting [2], the “ASMS ratio (%) n = 1” value came to 0.0% and the “ASMS ratio (%) n = 2” value was 0.0%.

For `CCOc1cccc(-c2ccc(CN3CCN(c4ccc(C(=O)NS(=O)(=O)c5ccc(NCCSc6ccccc6)c([N+](=O)[O-])c5)nn4)CC3)c(OC)c2)c1` [B2Q079-01, 6-[4-[[4-(3-Ethoxyphenyl)-2-methoxyphenyl]methyl]piperazin-1-yl]-N-[3-nitro-4-(2-phenylsulfanylethylamino)phenyl]sulfonylpyridazine-3-carboxamide], for the setting “AS-MS, mixture library, Bcl-2”, the “ASMS ratio (%) n = 1” value is 17.6% and the “ASMS ratio (%) n = 2” value is listed as 0.0%.

`CCOc1cncc(C#Cc2ccccc2C(=O)N2CCN(c3ccc(C(=O)NS(=O)(=O)CCC(F)(F)F)nn3)CC2)c1` [B2N008-01, 6-[4-[2-[2-(5-Ethoxypyridin-3-yl)ethynyl]benzoyl]piperazin-1-yl]-N-(3,3,3-trifluoropropylsulfonyl)pyridazine-3-carboxamide]: the “ASMS ratio (%)” value (n = 1) is on record as 0.0% and the “ASMS ratio (%)” value (n = 2) is −0.4%.

Turning to `CCOc1cncc(C#Cc2cncc(C(=O)N3CCN(c4ccc(C(=O)N(C)CC56CC7CC(CC(C7)C5)C6)cc4)CC3)c2)c1` [B3A032-01, N-(1-Adamantylmethyl)-4-[4-[5-[2-(5-ethoxypyridin-3-yl)ethynyl]pyridine-3-carbonyl]piperazin-1-yl]-N-methylbenzamide], under setting [2], the “ASMS ratio (%) n = 1” value came out at 9.1% and the “ASMS ratio (%) n = 2” value is listed as −5.1%.

For the compound `CCOc1cccc(-c2ccc(CN3CCN(c4ccc(C(=O)NS(C)(=O)=O)nn4)CC3)cc2C)c1` [B2I073-01, 6-[4-[[4-(3-Ethoxyphenyl)-3-methylphenyl]methyl]piperazin-1-yl]-N-methylsulfonylpyridazine-3-carboxamide], the “ASMS ratio (%)” value is, setting by setting: (n = 1) 0.0%; (n = 2) 0.0%.

For `CCOc1cccc(-c2csc(C(=O)N3CCN(c4ccc(C(=O)NS(=O)(=O)c5ccc(NCCSc6ccccc6)c([N+](=O)[O-])c5)nn4)CC3)c2)c1` [B2Q001-01, 6-[4-[4-(3-Ethoxyphenyl)thiophene-2-carbonyl]piperazin-1-yl]-N-[3-nitro-4-(2-phenylsulfanylethylamino)phenyl]sulfonylpyridazine-3-carboxamide], where the note is “AS-MS, mixture library, Bcl-2”, the “ASMS ratio (%) n = 1” value amounted to 0.0% and the “ASMS ratio (%) n = 2” value is given as 0.0%.

For the compound `CCOc1cccc(-c2cc(CN3CCN(c4ccc(C(=O)NS(=O)(=O)CC56CC7CC(CC(C7)C5)C6)nn4)CC3)cc(OCC)c2)c1` [B2A081-01, N-(1-Adamantylmethylsulfonyl)-6-[4-[[3-ethoxy-5-(3-ethoxyphenyl)phenyl]methyl]piperazin-1-yl]pyridazine-3-carboxamide], under “AS-MS, mixture library, Bcl-2”, the “ASMS ratio (%) n = 1” value amounted to 18.6% and the “ASMS ratio (%) n = 2” value is 16.7%.

In the case of `CCOc1cccc(-c2ccc(CN3CCN(c4ccc(C(=O)N(C)CC56CC7CC(CC(C7)C5)C6)nn4)CC3)cc2F)c1` [B3A077-01, N-(1-Adamantylmethyl)-6-[4-[[4-(3-ethoxyphenyl)-3-fluorophenyl]methyl]piperazin-1-yl]-N-methylpyridazine-3-carboxamide], under setting [2], the “ASMS ratio (%) n = 1” value is reported as 4.1% and the “ASMS ratio (%) n = 2” value was −2.8%.

Regarding `CCOc1cccc(-c2csc(CN3CCN(c4ccc(C(=O)NS(=O)(=O)c5ccc(NCCSc6ccccc6)c(C(F)(F)F)c5)cc4)CC3)c2)c1` [B2R067-01, 4-[4-[[4-(3-Ethoxyphenyl)thiophen-2-yl]methyl]piperazin-1-yl]-N-[4-(2-phenylsulfanylethylamino)-3-(trifluoromethyl)phenyl]sulfonylbenzamide], the “ASMS ratio (%)” value runs as follows: (n = 1) 8.0%; (n = 2) 0.0%.
